Results: patent EP4603105A1, “PHARMACEUTICAL COMPOSITION CONTAINING CYCLIC COMPOUND HAVING SELECTIVE KRAS INHIBITORY EFFECT AGAINST HRAS AND NRAS” (CHUGAI SEIYAKU KABUSHIKI KAISHA, priority 2022, dated 2024)
*1 amine or outer side, *2 acyl side, *3 side chain or, on linkers, in order; H or OH if unused. Where a SMILES comes first, the peptide text is derived from it. Bridges are numbered along the chain shown (N, C = ends). [ ]: non-standard residue; d: D form. The star is where a group is joined. hPhe(3,5-F2-4-CF3) = N[C@@H](CCc1cc(F)c(C(F)(F)F)c(F)c1)C(=O)O; hPhe(3-Cl-4-CF3) = N[C@@H](CCc1ccc(C(F)(F)F)c(Cl)c1)C(=O)O; NPrPhe(4-CF3) = CCCN[C@@H](Cc1ccc(C(F)(F)F)cc1)C(=O)O; NMeAbu(4,4,4-F3) = CN[C@@H](CC(F)(F)F)C(=O)O; X16 = O=C([C@@H](N[*:1])C1CC(F)(F)C1)[*:2]; NMeGly(cPent) = CN[C@H](C(=O)O)C1CCCC1; Ac4c(3,3-F2) = NC1(C(=O)O)CC(F)(F)C1; Nva(3-Et) = CCC(CC)[C@H](N)C(=O)O; αMeI = CC[C@H](C)[C@](C)(N)C(=O)O; Gly(N-propargyl) = C#CCNCC(=O)O; NMeD = CN[C@@H](CC(=O)O)C(=O)O; Ac4c(3-oxa) = NC1(C(=O)O)COC1; NMeL = CN[C@@H](CC(C)C)C(=O)O; X20 = O=C(CN(CCF)[*:1])[*:2]; αMeS = C[C@](N)(CO)C(=O)O; Iva = CC[C@](C)(N)C(=O)O; Morpholide = C1CN(*)CCO1; NAllylGly = C=CCNCC(=O)O; Ac5c = NC1(C(=O)O)CCCC1; Sar = CNCC(=O)O; tBu = CC(C)(C)*; Allyl = C=CC*

Tests used:
[1] = target: HRAS wild-type protein (Homo sapiens, UniProt P01112); assay: Binding to HRAS by surface plasmon resonance (SPR), KD and KD ratio to KRAS; conditions: ratio of the KD value with respect to HRAS wild-type protein to the KD value with respect to KRAS
Sequence of HRAS wild-type protein (P01112 whole entry): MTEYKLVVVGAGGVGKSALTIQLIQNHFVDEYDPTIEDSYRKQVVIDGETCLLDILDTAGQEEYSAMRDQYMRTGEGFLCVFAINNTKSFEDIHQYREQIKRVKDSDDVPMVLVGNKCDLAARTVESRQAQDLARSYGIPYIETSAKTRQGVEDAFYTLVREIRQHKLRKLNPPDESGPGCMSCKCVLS
In short: (§1)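 Recombinant RAS proteins bearing a biotinylated Avi tag and loaded with GDP served as the captured ligand, recaptured fresh every cycle. Binding responses were referenced to an uncoated surface and a buffer-only blank cycle. Dissociation constants were obtained by 1:1 model fitting at 30°C.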

[2] = test system: human lung cancer strain NCI-H441; format: cell-based
In short: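 Signal came from […] measured per well once the reagent was added. Beforehand, cells were cultured at 37°C and 5% carbon dioxide on a compound series serially diluted in dimethyl sulfoxide.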

[3] = target: GDP-bound NRAS wild-type protein (Homo sapiens, UniProt P01111); assay: Binding to NRAS by surface plasmon resonance (SPR), KD and KD ratio to KRAS; conditions: ratio of the KD value with respect to GDP-bound NRAS wild-type protein to the KD value with respect to KRAS
Sequence of GDP-bound NRAS wild-type protein (P01111 whole entry): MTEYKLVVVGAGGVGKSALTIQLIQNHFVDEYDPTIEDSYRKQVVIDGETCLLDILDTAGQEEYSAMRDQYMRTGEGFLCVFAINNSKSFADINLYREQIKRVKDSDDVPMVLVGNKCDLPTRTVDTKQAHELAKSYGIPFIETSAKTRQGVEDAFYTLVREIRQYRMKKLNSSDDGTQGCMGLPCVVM
In short: as §1

SMILES | HRAS /KRAS [1] | IC50 [2] | NRAS /KRAS [3]
C=CCOC[C@]1(C)NC(=O)[C@@H]2CCCN2C(=O)[C@H](CCc2cc(F)c(C(F)(F)F)c(F)c2)NC(=O)CN(C)C(=O)[C@H](Cc2ccc(C(F)(F)F)cc2)N(CCC)C(=O)CN(C)C(=O)CN(C)C(=O)[C@H]([C@@H](C)CC)NC(=O)[C@H](CC(C)C)N(C)C(=O)C[C@@H](C(=O)N(C)C)N(C)C(=O)[C@H](C2CCCC2)N(C)C1=O [PP0742] ([NMeL]I[Sar][Sar][NPrPhe(4-CF3)][Sar][hPhe(3,5-F2-4-CF3)]P[αMeS](Allyl)[NMeGly(cPent)][NMeD]-NMe2; lactam N-11) | B (a compound having 3 or more and less than 10 is denoted as B) | 73.3 nM | B (a compound having 3 or more and less than 10 is denoted as B)
CCCN1C(=O)CN(C)C(=O)CN(C)C(=O)[C@H]([C@@H](C)CC)NC(=O)[C@H](CC(C)C)N(C)C(=O)C[C@@H](C(=O)N(C)C)N(C)C(=O)[C@H](C2CCCC2)N(C)C(=O)[C@](C)(COC(C)(C)C)NC(=O)[C@@H]2CCCN2C(=O)[C@H](CCc2cc(F)c(C(F)(F)F)c(F)c2)NC(=O)CN(C)C(=O)[C@@H]1Cc1ccc(C(F)(F)F)cc1 [PP0743] ([NMeL]I[Sar][Sar][NPrPhe(4-CF3)][Sar][hPhe(3,5-F2-4-CF3)]P[αMeS](tBu)[NMeGly(cPent)][NMeD]-NMe2; lactam N-11) | C (A compound having a KD ratio of 0.1 or more and less than 3 is denoted as C) | 76.3 nM | B (a compound having 3 or more and less than 10 is denoted as B)
CCCN1C(=O)CN(C)C(=O)CN(C)C(=O)[C@H]([C@@H](C)CC)NC(=O)[C@H](CC(C)C)N(C)C(=O)C[C@@H](C(=O)N(C)C)N(C)C(=O)[C@H](C2CCCC2)N(C)C(=O)C2(COC2)NC(=O)[C@@H]2CCCN2C(=O)[C@H](CCc2cc(F)c(C(F)(F)F)c(F)c2)NC(=O)CN(C)C(=O)[C@@H]1Cc1ccc(C(F)(F)F)cc1 [PP0744] ([NMeL]I[Sar][Sar][NPrPhe(4-CF3)][Sar][hPhe(3,5-F2-4-CF3)]P[Ac4c(3-oxa)][NMeGly(cPent)][NMeD]-NMe2; lactam N-11) | B (a compound having 3 or more and less than 10 is denoted as B) | 57 nM | B (a compound having 3 or more and less than 10 is denoted as B)
CCCN1C(=O)CN(C)C(=O)CN(C)C(=O)[C@H]([C@@H](C)CC)NC(=O)[C@H](CC(C)C)N(C)C(=O)C[C@@H](C(=O)N(C)C)N(C)C(=O)[C@H](C2CCCC2)N(C)C(=O)C2(CC(F)(F)C2)NC(=O)[C@@H]2CCCN2C(=O)[C@H](CCc2cc(F)c(C(F)(F)F)c(F)c2)NC(=O)CN(C)C(=O)[C@@H]1Cc1ccc(C(F)(F)F)cc1 [PP0745] ([NMeL]I[Sar][Sar][NPrPhe(4-CF3)][Sar][hPhe(3,5-F2-4-CF3)]P[Ac4c(3,3-F2)][NMeGly(cPent)][NMeD]-NMe2; lactam N-11) | C (A compound having a KD ratio of 0.1 or more and less than 3 is denoted as C) | 3.9 nM | B (a compound having 3 or more and less than 10 is denoted as B)
CCCN1C(=O)CN(C)C(=O)CN(C)C(=O)[C@H]([C@@H](C)CC)NC(=O)[C@H](CC(C)C)N(C)C(=O)C[C@@H](C(=O)N(C)C)N(C)C(=O)[C@H](CC(F)(F)F)N(C)C(=O)C2(CCCC2)NC(=O)[C@@H]2CCCN2C(=O)[C@H](CCc2cc(F)c(C(F)(F)F)c(F)c2)NC(=O)CN(C)C(=O)[C@@H]1Cc1ccc(C(F)(F)F)cc1 [PP0746] ([NMeL]I[Sar][Sar][NPrPhe(4-CF3)][Sar][hPhe(3,5-F2-4-CF3)]P[Ac5c][NMeAbu(4,4,4-F3)][NMeD]-NMe2; lactam N-11) | C (A compound having a KD ratio of 0.1 or more and less than 3 is denoted as C) | 35.4 nM | B (a compound having 3 or more and less than 10 is denoted as B)
CCCN1C(=O)CN(C)C(=O)CN(C)C(=O)[C@H](C(CC)CC)NC(=O)[C@H](CC(C)C)N(C)C(=O)C[C@@H](C(=O)N(C)C)N(C)C(=O)[C@H](C2CCCC2)N(C)C(=O)C2(CCCC2)NC(=O)[C@@H]2CCCN2C(=O)[C@H](CCc2cc(F)c(C(F)(F)F)c(F)c2)NC(=O)CN(C)C(=O)[C@@H]1Cc1ccc(C(F)(F)F)cc1 [PP0747] ([NMeL][Nva(3-Et)][Sar][Sar][NPrPhe(4-CF3)][Sar][hPhe(3,5-F2-4-CF3)]P[Ac5c][NMeGly(cPent)][NMeD]-NMe2; lactam N-11) | C (A compound having a KD ratio of 0.1 or more and less than 3 is denoted as C) | 45.9 nM | B (a compound having 3 or more and less than 10 is denoted as B)
CCCN1C(=O)CN(C)C(=O)CN(C)C(=O)[C@H](C2CC(F)(F)C2)NC(=O)[C@H](CC(C)C)N(C)C(=O)C[C@@H](C(=O)N(C)C)N(C)C(=O)[C@H](C2CCCC2)N(C)C(=O)C2(CCCC2)NC(=O)[C@@H]2CCCN2C(=O)[C@H](CCc2cc(F)c(C(F)(F)F)c(F)c2)NC(=O)CN(C)C(=O)[C@@H]1Cc1ccc(C(F)(F)F)cc1 [PP0748] ([NMeL][X16][Sar][Sar][NPrPhe(4-CF3)][Sar][hPhe(3,5-F2-4-CF3)]P[Ac5c][NMeGly(cPent)][NMeD]-NMe2; lactam N-11) | B (a compound having 3 or more and less than 10 is denoted as B) | 10.7 nM | B (a compound having 3 or more and less than 10 is denoted as B)
C=CCN1CC(=O)N(C)CC(=O)N(CCC)[C@@H](Cc2ccc(C(F)(F)F)cc2)C(=O)N(C)CC(=O)N[C@@H](CCc2ccc(C(F)(F)F)c(Cl)c2)C(=O)N2CCC[C@H]2C(=O)NC2(CCCC2)C(=O)N(C)[C@@H](C2CCCC2)C(=O)N(C)[C@H](C(=O)N2CCOCC2)CC(=O)N(C)[C@@H](CC(C)C)C(=O)N[C@@H]([C@@H](C)CC)C1=O [PP0749] ([NMeL]I[NAllylGly][Sar][NPrPhe(4-CF3)][Sar][hPhe(3-Cl-4-CF3)]P[Ac5c][NMeGly(cPent)][NMeD]-Morpholide; lactam N-11) | C (A compound having a KD ratio of 0.1 or more and less than 3 is denoted as C) | 19.8 nM | B (a compound having 3 or more and less than 10 is denoted as B)
C#CCN1CC(=O)N(C)CC(=O)N(CCC)[C@@H](Cc2ccc(C(F)(F)F)cc2)C(=O)N(C)CC(=O)N[C@@H](CCc2ccc(C(F)(F)F)c(Cl)c2)C(=O)N2CCC[C@H]2C(=O)NC2(CCCC2)C(=O)N(C)[C@@H](C2CCCC2)C(=O)N(C)[C@H](C(=O)N2CCOCC2)CC(=O)N(C)[C@@H](CC(C)C)C(=O)N[C@@H]([C@@H](C)CC)C1=O [PP0750] ([NMeL]I[Gly(N-propargyl)][Sar][NPrPhe(4-CF3)][Sar][hPhe(3-Cl-4-CF3)]P[Ac5c][NMeGly(cPent)][NMeD]-Morpholide; lactam N-11) | C (A compound having a KD ratio of 0.1 or more and less than 3 is denoted as C) | 11.1 nM | B (a compound having 3 or more and less than 10 is denoted as B)
CCCN1C(=O)CN(C)C(=O)CN(CCF)C(=O)[C@H]([C@@H](C)CC)NC(=O)[C@H](CC(C)C)N(C)C(=O)C[C@@H](C(=O)N2CCOCC2)N(C)C(=O)[C@H](C2CCCC2)N(C)C(=O)C2(CCCC2)NC(=O)[C@@H]2CCCN2C(=O)[C@H](CCc2ccc(C(F)(F)F)c(Cl)c2)NC(=O)CN(C)C(=O)[C@@H]1Cc1ccc(C(F)(F)F)cc1 [PP0751] ([NMeL]I[X20][Sar][NPrPhe(4-CF3)][Sar][hPhe(3-Cl-4-CF3)]P[Ac5c][NMeGly(cPent)][NMeD]-Morpholide; lactam N-11) | C (A compound having a KD ratio of 0.1 or more and less than 3 is denoted as C) | 25.5 nM | B (a compound having 3 or more and less than 10 is denoted as B)
CCCN1C(=O)CN(C)C(=O)CN(C)C(=O)[C@H]([C@@H](C)CC)NC(=O)[C@H](CC(C)C)N(C)C(=O)C[C@@H](C(=O)N2CCOCC2)N(C)C(=O)[C@H](C2CCCC2)N(C)C(=O)C2(CCCC2)NC(=O)[C@@H]2CCCN2C(=O)[C@H](CCc2cc(F)c(C(F)(F)F)c(F)c2)NC(=O)CN(C)C(=O)[C@@H]1Cc1ccc(C(F)(F)F)cc1 [PP0753] ([NMeL]I[Sar][Sar][NPrPhe(4-CF3)][Sar][hPhe(3,5-F2-4-CF3)]P[Ac5c][NMeGly(cPent)][NMeD]-Morpholide; lactam N-11) | C (A compound having a KD ratio of 0.1 or more and less than 3 is denoted as C) | 8.2 nM | B (a compound having 3 or more and less than 10 is denoted as B)
CCCN1C(=O)CN(C)C(=O)CN(C)C(=O)[C@H]([C@@H](C)CC)NC(=O)[C@H](CC(C)C)N(C)C(=O)C[C@@H](C(=O)N2CCOCC2)N(C)C(=O)[C@H](C2CCCC2)N(C)C(=O)[C@](C)(CC)NC(=O)[C@@H]2CCCN2C(=O)[C@H](CCc2cc(F)c(C(F)(F)F)c(F)c2)NC(=O)CN(C)C(=O)[C@@H]1Cc1ccc(C(F)(F)F)cc1 [PP0754] ([NMeL]I[Sar][Sar][NPrPhe(4-CF3)][Sar][hPhe(3,5-F2-4-CF3)]P[Iva][NMeGly(cPent)][NMeD]-Morpholide; lactam N-11) | C (A compound having a KD ratio of 0.1 or more and less than 3 is denoted as C) | 40.4 nM | B (a compound having 3 or more and less than 10 is denoted as B)
CCCN1C(=O)CN(C)C(=O)CN(C)C(=O)[C@H]([C@@H](C)CC)NC(=O)[C@H](CC(C)C)N(C)C(=O)C[C@@H](C(=O)N2CCOCC2)N(C)C(=O)[C@H](C2CCCC2)N(C)C(=O)[C@](C)([C@@H](C)CC)NC(=O)[C@@H]2CCCN2C(=O)[C@H](CCc2cc(F)c(C(F)(F)F)c(F)c2)NC(=O)CN(C)C(=O)[C@@H]1Cc1ccc(C(F)(F)F)cc1 [PP0757] ([NMeL]I[Sar][Sar][NPrPhe(4-CF3)][Sar][hPhe(3,5-F2-4-CF3)]P[αMeI][NMeGly(cPent)][NMeD]-Morpholide; lactam N-11) | C (A compound having a KD ratio of 0.1 or more and less than 3 is denoted as C) | 480 nM | B (a compound having 3 or more and less than 10 is denoted as B)
